Assay results from the NIST ThermoML archive (doi:10.1021/je050488p).
± gives the expanded uncertainty stated by the source.

Details: Crystal; visual observation

O=P1(CO)Oc2ccccc2-c2ccccc21 (stereo unspecified) [6-(hydroxymethyl)dibenzo[c,e][1,2]oxaphosphinine 6-oxide]
Normal melting temperature: 158.50 ± 1.5 °C
